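These data come from cells grown in 96-well plates and exposed to compound for 48 hours at five concentrations. GI50: concentration for 50% inhibition of growth.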 Calls of active or inactive are those of the source. No stated cut-off is given here; in the data, active = GI50 up to about 1.1 µM and inactive = higher.
Assays:
Test in all cases: NCI tumour cell line growth inhibition, 48 h
[1] = test system: U-251
[2] = test system: HCT-116
[3] = test system: OVCAR-8
[4] = test system: UACC-62
[5] = test system: SNB-19
[6] = test system: SF-295
[7] = test system: CCRF-CEM
[8] = test system: NCI-H460
[9] = test system: OVCAR-4
[10] = test system: RXF 393
[11] = test system: Malme-3M
[12] = test system: SF-539
[13] = test system: SN12C
[14] = test system: SK-OV-3
[15] = test system: NCI-H23
[16] = test system: PC-3
[17] = test system: MCF7
[18] = test system: DU-145
[19] = test system: MDA-MB-435

Measured: GI50

c1ccc(CCCC2Sc3cccc4cccc(c34)S2)cc1
inactive: [1] > 100 µM | [2] > 100 µM | [3] > 100 µM | [4] > 100 µM | [5] > 100 µM | [6] > 100 µM | [7] > 100 µM | [8] > 100 µM | [9] > 100 µM | [10] > 100 µM | [11] 78.3 µM | [12] > 100 µM | [13] > 100 µM | [14] > 100 µM | [15] > 100 µM

COC(=O)C1=CC2OC13CC1CCC3(C2=O)C1(C)C (stereo unspecified)
inactive: [1] 12.9 µM | [2] 11.4 µM | [3] 8.04 µM | [4] 16.3 µM | [5] 21.6 µM | [6] 19.6 µM | [7] 3.25 µM | [8] 34.1 µM | [9] 10.9 µM | [10] 12 µM | [11] 8.07 µM | [12] 14.2 µM | [13] 12.7 µM | [14] 21 µM | [15] 16 µM

CC1C2=C(CCCC2=O)N(c2ccc(Cl)cc2)C2=C1C(=O)CCC2
inactive: [16] 60 µM | [1] 54.7 µM | [3] > 100 µM | [4] 67.1 µM | [5] > 100 µM | [7] 38.5 µM | [8] 60.5 µM | [9] 39.1 µM | [10] 21.6 µM | [12] > 100 µM | [13] 83 µM | [14] > 100 µM | [15] > 100 µM | [17] 57.7 µM

O=[N+]([O-])C1C2C=CC(C2)[C@H]1c1ccccc1Cl (stereo partly specified)
inactive: [1] > 87.9 µM | [2] > 89.9 µM | [3] > 100 µM | [4] 27.5 µM | [5] > 100 µM | [6] > 100 µM | [7] 87.5 µM | [8] > 100 µM | [9] > 10 µM | [10] 45.8 µM | [11] 99.1 µM | [12] > 100 µM | [13] > 100 µM | [14] > 31.6 µM | [15] 63.4 µM

Cc1cccc(C)c1N1C(=O)C(=O)C(c2nc3ccccc3s2)/C(=N/NC(=O)NN)C1=O (stereo unspecified)
inactive: [1] > 100 µM | [2] > 100 µM | [3] > 100 µM | [4] > 100 µM | [5] > 100 µM | [6] > 100 µM | [7] > 100 µM | [8] > 100 µM | [9] > 100 µM | [10] > 100 µM | [11] > 100 µM | [12] > 100 µM | [13] > 100 µM | [14] > 100 µM | [15] > 100 µM

CC(C)C(N)=O [ISOBUTYRAMIDE]
inactive: [1] > 5000 µM | [2] > 5000 µM | [3] > 5000 µM | [4] > 5000 µM | [6] > 5000 µM | [7] > 5000 µM | [8] > 5000 µM | [9] > 5000 µM | [10] > 5000 µM | [11] > 5000 µM | [12] > 5000 µM | [13] > 5000 µM | [14] > 5000 µM | [15] > 5000 µM

CCCCCCCCCCCCNC(=S)OCCCC
inactive: [1] 63.7 µM | [2] 50.7 µM | [3] > 100 µM | [4] > 100 µM | [5] > 100 µM | [6] > 100 µM | [7] 29.4 µM | [8] > 100 µM | [9] > 100 µM | [10] > 100 µM | [11] > 100 µM | [12] > 100 µM | [13] 59.2 µM | [14] > 100 µM | [15] > 100 µM

Nc1ccc2ncc(Nc3ccc(Cl)c(Cl)c3)nc2c1
inactive: [1] 33.7 µM | [2] 21.2 µM | [3] 25.5 µM | [4] 20.2 µM | [5] 24.5 µM | [6] 20 µM | [7] 19.7 µM | [8] 27.4 µM | [9] 46 µM | [10] 24.7 µM | [11] 23.1 µM | [12] 17.3 µM | [13] 36.4 µM | [14] 38.9 µM | [15] 18.7 µM

c1ccc(-c2sc(-c3ccccc3)c3c2C(c2ccccc2)c2c(-c4ccccc4)sc(-c4ccccc4)c2C3c2ccccc2)cc1 (stereo unspecified)
inactive: [1] > 100 µM | [2] > 100 µM | [3] > 100 µM | [4] > 100 µM | [5] > 100 µM | [6] > 100 µM | [7] > 100 µM | [8] > 100 µM | [9] > 100 µM | [10] > 100 µM | [11] > 100 µM | [12] > 100 µM | [13] > 100 µM | [14] > 100 µM | [15] > 100 µM

O=C(O)CCSC(=O)Nc1ccccc1Cl
inactive: [1] > 100 µM | [2] > 100 µM | [3] > 100 µM | [4] > 100 µM | [5] > 100 µM | [6] > 100 µM | [7] > 100 µM | [8] > 100 µM | [9] > 100 µM | [10] > 100 µM | [11] > 100 µM | [12] > 100 µM | [13] > 100 µM | [14] > 100 µM | [15] > 100 µM

CC(=O)c1cc(CC2Cc3cc4c(cc3C2=O)CCC4)cc2c1CCC2 (stereo unspecified)
inactive: [16] 10.1 µM | [1] 33.7 µM | [2] 26.1 µM | [3] 46.8 µM | [4] > 100 µM | [5] 78 µM | [18] > 100 µM | [6] 20.4 µM | [7] 24 µM | [8] 36 µM | [19] 32.2 µM | [9] 54.8 µM | [11] 33 µM | [12] 70.5 µM | [13] 47.4 µM | [14] 62.2 µM | [15] 15 µM | [17] 30.8 µM

CC(=O)c1c(O)ccc2c1CC(CC=O)O2 (stereo unspecified)
inactive: [1] 83.9 µM | [2] 19.7 µM | [3] 27.6 µM | [4] 28.8 µM | [5] > 100 µM | [6] > 100 µM | [7] 74.8 µM | [8] > 100 µM | [9] 98.6 µM | [10] > 100 µM | [11] > 100 µM | [12] 50 µM | [13] 58.9 µM | [14] > 100 µM | [15] 53.6 µM

C/C(=N\NC(=O)c1ccccc1O)c1c(O)cc(C)oc1=O
inactive: [1] 37.7 µM | [2] 49.4 µM | [3] 68.2 µM | [4] 25.6 µM | [5] 63.5 µM | [6] 51.4 µM | [7] > 10 µM | [8] 43.6 µM | [9] 71 µM | [10] 40.6 µM | [11] 99.5 µM | [12] 62.8 µM | [13] > 100 µM | [14] 17.4 µM | [15] 84.1 µM

— ChEMBL document CHEMBL1201862, “PubChem BioAssay data set” (2004)
